In article PMC8625619, “Carbonic Anhydrase Inhibition with Sulfonamides Incorporating Pyrazole- and Pyridazinecarboxamide Moieties Provides Examples of Isoform-Selective Inhibitors” (Molecules, 2021):
pKi: −log10 of the molar value.

Legend:
hCA I = hCA I (Homo sapiens, UniProt P00915); test: stopped flow CO2 hydrase assay, hCA I
Description: (§1) An Applied Photophysics stopped-flow instrument was used for assaying the CA-catalyzed CO2 hydration activity [50]. […] However, the background activity from the uncatalyzed reaction was always subtracted when IC50 values were obtained by using the data analysis software for the stopped-flow instrument. […] The uncatalyzed rates were determined in the same manner and subtracted from the total observed rates. Stock solutions of the inhibitor (0.1 mM) were prepared in distilled–deionized water, and dilutions up to 0.01 nM were performed thereafter with the assay buffer. Inhibitor and enzyme solutions were preincubated together for 15 min at room temperature prior to the assay, to allow for the formation of the E–I complex. The inhibition constants were obtained by nonlinear least-squares methods using PRISM 3 and the Cheng–Prusoff equation as reported earlier and represented the mean from at least three different determinations. All CA isoforms were recombinant proteins obtained in-house, as reported earlier [2, 51, 52].

hCA II = hCA II (Homo sapiens, UniProt P00918); test: stopped flow CO2 hydrase assay, hCA II
Description: as §1

hCA IX = hCA IX (Homo sapiens, UniProt Q16790); test: stopped flow CO2 hydrase assay, hCA IX
Description: as §1

hCA XII = hCA XII (Homo sapiens, UniProt O43570); test: stopped flow CO2 hydrase assay, hCA XII
hCA XII, sequence (O43570 25-354): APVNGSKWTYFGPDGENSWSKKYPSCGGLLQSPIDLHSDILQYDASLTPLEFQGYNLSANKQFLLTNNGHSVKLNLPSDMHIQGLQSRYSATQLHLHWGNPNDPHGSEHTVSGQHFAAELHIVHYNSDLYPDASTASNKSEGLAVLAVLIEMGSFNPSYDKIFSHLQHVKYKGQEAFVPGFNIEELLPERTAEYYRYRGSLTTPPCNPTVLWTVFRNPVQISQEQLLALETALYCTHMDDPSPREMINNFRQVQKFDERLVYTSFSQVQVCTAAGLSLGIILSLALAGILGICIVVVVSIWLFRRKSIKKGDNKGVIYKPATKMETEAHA
Description: as §1

hCA I, sequence (P00915 whole entry): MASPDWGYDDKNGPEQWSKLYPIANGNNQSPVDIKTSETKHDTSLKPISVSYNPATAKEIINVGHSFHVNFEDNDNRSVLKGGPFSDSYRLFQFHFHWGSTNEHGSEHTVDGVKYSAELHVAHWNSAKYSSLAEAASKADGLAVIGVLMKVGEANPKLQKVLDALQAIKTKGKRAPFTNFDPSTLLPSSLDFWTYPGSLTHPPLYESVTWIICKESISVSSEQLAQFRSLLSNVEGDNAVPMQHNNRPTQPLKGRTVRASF

Compound | melting point [°C] | pKi (hCA I) | pKi (hCA II) | pKi (hCA IX) | pKi (hCA XII) | selectivity index (SI) for hCA II towards hCA I (hCA II; hCA II compared to hCA I) | selectivity index (SI) for hCA II compared to hCA IX (hCA II; hCA II compared to hCA IX) | selectivity index on hCA IX compared to hCA I (hCA IX; hCA IX compared to hCA I) | selectivity index on hCA IX compared to hCA II (hCA IX; hCA IX compared to hCA II)
NS(=O)(=O)c1ccc(NC(=O)c2nn(-c3ccc(Cl)cc3)ccc2=O)cc1 [10d, N-[4-(Aminosulfonyl)phenyl]-1-(4-chlorophenyl)-4-oxo-1,4-dihydropyridazine-3-carboxamide] | 310 to 312 | 8.21 | 8.10 | 6.78 | 7.18 |  |  |  | 
Cc1cc(O)c(-c2cc(C(=O)NCCc3ccc(S(N)(=O)=O)cc3)[nH]n2)cc1C [5d, N-{2-[4-(Aminosulfonyl)phenyl]ethyl}-3-(2-hydroxy-4,5-dimethylphenyl)-1H-pyrazole-5-carboxamide] | 256 to 258 | 6.66 | 7.60 | 7.20 | 7.21 |  |  |  | 
COc1cc2c(cc1OC)-c1c(c(C(=O)Nc3ccc(S(N)(=O)=O)cc3)nn1C)C2 [compound 15, N-[4-(Aminosulfonyl)phenyl]-6,7-dimethoxy-1-methyl-1,4-dihydroindeno[1,2-c]pyrazole-3-carboxamide] |  | 6.14 |  | 8.21 |  |  |  |  | 
Cc1ccc(-c2cc(C(=O)NCCc3ccc(S(N)(=O)=O)cc3)[nH]n2)c(O)c1 [5b, N-{2-[4-(Aminosulfonyl)phenyl]ethyl}-3-(2-hydroxy-4-methylphenyl)-1H-pyrazole-5-carboxamide] | 254 to 255 | 6.46 | 7.79 | 7.79 | 6.48 |  |  |  | 
NS(=O)(=O)c1ccc(NC(=O)c2nn(-c3cccc(Cl)c3)ccc2=O)cc1 [10c, N-[4-(Aminosulfonyl)phenyl]-1-(3-chlorophenyl)-4-oxo-1,4-dihydropyridazine-3-carboxamide] | 297 to 299 | 6.08 | 7.12 | 6.25 | 6.36 |  |  |  | 
NS(=O)(=O)c1ccc(CCNC(=O)c2cc(-c3cc(Cl)ccc3O)n[nH]2)cc1 [5f, N-{2-[4-(Aminosulfonyl)phenyl]ethyl}-3-(5-chloro-2-hydroxyphenyl)-1H-pyrazole-5-carboxamide] |  | 5.67 | 8.04 | 7.10 | 7.11 | 236 | 8.7 |  | 
NS(=O)(=O)c1ccc(NC(=O)c2cc(-c3ccccc3O)[nH]n2)cc1 [4a, N-[4-(Aminosulfonyl)phenyl]-3-(2-hydroxyphenyl)-1H-pyrazole-5-carboxamide] |  | 5.42 | 6.06 | 6.35 | 6.57 |  |  |  | 
Cc1ccc(O)c(-c2cc(C(=O)Nc3ccc(S(N)(=O)=O)cc3)[nH]n2)c1 [4c, N-[4-(Aminosulfonyl)phenyl]-3-(2-hydroxy-5-methylphenyl)-1H-pyrazole-5-carboxamide] | 297 to 299 | 6.66 | 7.79 | 8.07 | 6.60 |  |  | 26 | two times
NS(=O)(=O)c1ccc(NC(=O)c2cc(-c3cc(Cl)ccc3O)n[nH]2)cc1 [4f, N-[4-(Aminosulfonyl)phenyl]-3-(5-chloro-2-hydroxyphenyl)-1H-pyrazole-5-carboxamide] | 302 to 304 | 6.81 | 7.43 | 7.47 | 7.04 |  |  |  | 
Cc1cc(C)c(O)c(-c2cc(C(=O)NCCc3ccc(S(N)(=O)=O)cc3)[nH]n2)c1 [5e, N-{2-[4-(Aminosulfonyl)phenyl]ethyl}-3-(2-hydroxy-3,5-dimethylphenyl)-1H-pyrazole-5-carboxamide] |  | 7.15 | 7.79 | 7.28 | 6.72 |  |  |  | 
Cc1ccc(-c2cc(C(=O)Nc3ccc(S(N)(=O)=O)cc3)[nH]n2)c(O)c1 [4b, N-[4-(Aminosulfonyl)phenyl]-3-(2-hydroxy-4-methylphenyl)-1H-pyrazole-5-carboxamide] |  | 7.03 | 6.51 | 7.10 | 6.43 |  |  |  | 
NS(=O)(=O)c1ccc(CCNC(=O)c2cc(-c3ccccc3O)n[nH]2)cc1 [5a, N-{2-[4-(Aminosulfonyl)phenyl]ethyl}-3-(2-hydroxyphenyl)-1H-pyrazole-5-carboxamide] |  | 7.06 |  |  |  |  |  |  | 
NS(=O)(=O)c1ccc(NC(=O)c2nn(-c3ccc(F)cc3)ccc2=O)cc1 [10b, N-[4-(Aminosulfonyl)phenyl]-1-(4-fluorophenyl)-4-oxo-1,4-dihydropyridazine-3-carboxamide] | 313 to 315 | 6.32 | 7.14 | 6.88 | 7.02 |  |  |  | 
